These results are taken from paper PMC9221290, “Alkaloids of Dicranostigma franchetianum (Papaveraceae) and Berberine Derivatives as a New Class of Antimycobacterial Agents” (Biomolecules, 2022).

In brackets after ≈: the same amount, converted by molar mass. Like-named read-outs stand apart in the source and are kept apart here.

The IC50 is the concentration that inhibits the measured activity by half. One may read the viability as a read-out of living cells in per cent, often relative to untreated cells.

Data set [1] has as its system Mtb H37Ra ITM-M006710 (ATCC 9431). Briefly: Antimycobacterial microdilution broth assay (resazurin), Mtb H37Ra. The settings on record: Mycobacterium tuberculosis. Type of data set: cell-based, Mycobacterium tuberculosis.
Data set [2] relates to five Mycobacterium or Mycolicibacterium strains. The data set can be described thus: organism not typed. Type of data set: cell-based. The note with it: read-out: MICs against all tested mycobacterial strains.
Data set [3] deals with Mycobacterium avium DSM 44156 (ATCC 25291). The data set can be described thus: Antimycobacterial microdilution broth assay (resazurin), M. avium. The settings on record: Mycobacterium avium, 96 h, read-out: MIC M. avium, microdilution broth, resazurin, 96 h. Format: cell-based. A general note: Broth dilution looks for growth in wells or tubes with falling amounts of substance.

Data set [4] has as its system methicillin-resistant Staphylococcus aureus. Set-up: method as in PMID 21341176. The note with it: read-out: IC50 against methicillin-resistant Staphylococcus aureus; cited from earlier work.
The subject of data set [5] is Mycolicibacterium aurum DSM 43999 (ATCC 23366). Briefly: Antimycobacterial microdilution broth assay (resazurin), M. aurum. Format: cell-based. The note with it: Mycolicibacterium aurum, 72 h, read-out: MIC M. aurum, microdilution broth, resazurin, 72 h.
In the next data set the test system is Aspergillus fumigatus. More on the design: method as in PMID 21341176. The settings on record: read-out: IC50 against Aspergillus fumigatus; cited from earlier work.
The test system of data set [6] is Mycobacterium kansasii DSM 44162 (ATCC 12478). Briefly: Antimycobacterial microdilution broth assay (resazurin), M. kansasii. Type of data set: cell-based. The note with it: Mycobacterium kansasii, 96 h, read-out: MIC M. kansasii, microdilution broth, resazurin, 96 h.
The subject of data set [7] is Mycolicibacterium smegmatis DSM 43465 (ATCC 607). The data set can be described thus: Antimycobacterial microdilution broth assay (resazurin), M. smegmatis. Format: cell-based. The settings on record: Mycolicibacterium smegmatis, 48 h, read-out: MIC M. smegmatis, microdilution broth, resazurin, 48 h.
In data set [8] the test system is HepG2 cells.
The nature of the next data set: in vitro. The settings on record: human, % of cell viability compared to control; for viability at 1 µM: HepG2, 1 µM; for viability at 5 µM: HepG2, 5 µM; for viability at 10 µM: HepG2, 10 µM; for viability at 25 µM: HepG2, 25 µM; for viability at 50 µM: HepG2, 50 µM; for viability at 75 µM: HepG2, 75 µM; for viability at 100 µM: HepG2, 100 µM; for viability at 0.1 µM: HepG2, 0.1 µM; for viability at 20 µM: HepG2, 20 µM; for viability at 30 µM: HepG2, 30 µM; for viability at 40 µM: HepG2, 40 µM.

For data set [9], the system named is HepG2 cells. The data set can be described thus: cells. The settings on record: Homo sapiens, HepG2, 24 h.
Setting [10] is: 120 h, microdilution broth, resazurin, 120 h, read-out: MIC Mtb H37Ra.
Where [11] appears, read: calculated from MIC (µg/mL) and MW, read-out: MIC Mtb H37Ra.
The mark [12] stands for this setting: read-out: HepG2 IC50, 1. measurement, MTT, 24 h, single measurement 1.
The mark [13] stands for this setting: read-out: HepG2 IC50, 2. measurement, MTT, 24 h, single measurement 2.
Where [14] appears, read: read-out: HepG2 IC50, 3. measurement, MTT, 24 h, single measurement 3.
[15] abbreviates: read-out: HepG2 IC50, MTT, 24 h incubation.

Turning to `COc1ccc2c(c1OC)C(OC1c3c(ccc(OC)c3OC)-c3ccc4cc5c(cc4c3N1C)OCO5)N(C)c1c-2ccc2cc3c(cc12)OCO3` (centres unmarked) [compound 5, bis-[6-(5,6-dihydrochelerythrinyl)]ether], the MIC in data set [1] (setting [10]) is 31.2 µg/mL; in data set [1] (setting [11]), 44 µM; in data set [2], 15.6 to 31.2 µg/mL (≈ 21.9 to 43.8 µM); in [3], 31.2 µg/mL (≈ 43.8 µM); in data set [5], 31.2 µg/mL (≈ 43.8 µM); in data set [6] it was 31.2 µg/mL (≈ 43.8 µM). Also, in data set [7], the MIC was found to be 31.2 µg/mL (≈ 43.8 µM). Also, the concentration for half-maximal inhibition (IC50) in data set [4] was 1 µM; in the data set on Aspergillus fumigatus, 0.9 µM.

With `CCOC1c2c(ccc(OC)c2OC)-c2ccc3cc4c(cc3c2N1C)OCO4` (centres unmarked) [compound 3, 6-ethoxydihydrochelerythrine], the MIC is 31.2 µg/mL in data set [1] (setting [10]); 79 µM in [1] (setting [11]); 15.6 to 31.2 µg/mL (≈ 39.7 to 79.4 µM) in data set [2]; 31.2 µg/mL (≈ 79.4 µM) in [3]; 15.6 µg/mL (≈ 39.7 µM) in data set [5]; 31.2 µg/mL (≈ 79.4 µM) in data set [6]. For the same compound, the MIC in [7] stood at 31.2 µg/mL (≈ 79.4 µM).

With `COc1ccc2cc3[n+](cc2c1OCc1ccc(C)cc1)CCc1cc2c(cc1-3)OCO2` [16d, 9-O-(4-methylbenzyl)berberine chloride], in the data set with HepG2 cells [8], the “SI (selectivity index)” value was 2.54. The MIC is 3.91 µg/mL in data set [1] (120 h, read-out: MIC Mtb H37Ra, microdilution broth, resazurin, 120 h); 8.46 µM in [1] (read-out: MIC Mtb H37Ra (µM), calculated from MIC (µg/mL) and MW); 1.98 µg/mL in [3]; 6.25 µg/mL in [5]; 3.91 µg/mL in data set [6]; 1.56 µg/mL in data set [7]. The viability at 1 µM amounted to 96.1% in the data set “in vitro” (1. measurement), 92.6% in the data set “in vitro” (2. measurement) and 76.5% in the data set “in vitro” (3. measurement). The viability at 5 µM in “in vitro” (1. measurement) was 70%; in the data set “in vitro” (2. measurement), 64.6%; in “in vitro” (3. measurement), 68.2%. Also, the viability at 10 µM was determined as 55.6% in the data set “in vitro” (1. measurement), 48% in “in vitro” (2. measurement) and 52% in the data set “in vitro” (3. measurement). The viability at 25 µM in “in vitro” (1. measurement) amounted to 48%; in the data set “in vitro” (2. measurement), 45%; in the data set “in vitro” (3. measurement) it was 47.6%. Besides, the viability at 50 µM in “in vitro” (1. measurement) is 43.7%; in “in vitro” (2. measurement), 41.4%; in the data set “in vitro” (3. measurement), 45.2%. Moreover, the viability at 75 µM stood at 32.6% in “in vitro” (1. measurement), 34% in “in vitro” (2. measurement) and 18.3% in the data set “in vitro” (3. measurement). In addition, the viability at 100 µM in “in vitro” (1. measurement) turned out to be 7.68%; in the data set “in vitro” (2. measurement), 15.7%; in “in vitro” (3. measurement) it was 11.4%. In addition, the viability at 0.1 µM was 93.3% in “in vitro” (2. measurement) and 79.8% in the data set “in vitro” (3. measurement). Besides, the IC50 in the data set with HepG2 cells [9] (setting [12]) worked out at 19.3 µM; with HepG2 cells [9] (setting [13]) it was 16 µM; in the data set on HepG2 cells [9] (setting [14]) it was 12.3 µM; in the data set on HepG2 cells [9] (setting [15]), 15.9 ± 3.48 µM.

With `COc1ccc2cc3[n+](cc2c1OCc1ccccc1Br)CCc1cc2c(cc1-3)OCO2` [16e, 9-O-(2-brombenzyl)berberine chloride], the “SI (selectivity index)” value with HepG2 cells [8] is 3.92. Also, the IC50 in the data set on HepG2 cells [8] (setting [15]) worked out at 11.8 ± 0.29 µM; in the data set with HepG2 cells [9] (setting [12]) it was 11.5 µM; with HepG2 cells [9] (setting [13]), 11.8 µM; in the data set with HepG2 cells [9] (setting [14]), 12 µM; in the data set on HepG2 cells [9] (setting [15]) it was 11.6 ± 0.29 µM. Further, the MIC in data set [1] (setting [10]) was 1.56 µg/mL; in data set [1] (setting [11]) it was 2.96 µM; in data set [2], 0.39 to 3.12 µg/mL; in data set [3] it was 1.56 µg/mL; in data set [5] it was 0.78 µg/mL; in data set [6], 3.12 µg/mL. In addition, the MIC in [7] is 0.39 µg/mL. In addition, the viability at 0.1 µM in the data set “in vitro” (1. measurement) was determined as 102%; in the data set “in vitro” (2. measurement) it was 95.5%; in the data set “in vitro” (3. measurement), 92%. Further, the viability at 1 µM in “in vitro” (1. measurement) amounted to 96.3%; in “in vitro” (2. measurement) it was 93.8%; in the data set “in vitro” (3. measurement), 98.5%. Also, the figures for the viability at 5 µM in “in vitro” (1. measurement), in “in vitro” (2. measurement) and in the data set “in vitro” (3. measurement) were 66.9%, 66.2% and 68%, respectively. For the same compound, the results for the viability at 10 µM in the data set “in vitro” (1. measurement), in “in vitro” (2. measurement) and in “in vitro” (3. measurement) were 48.6%, 53.6% and 53.7%, respectively. In addition, the viability at 20 µM amounted to 40.7% in the data set “in vitro” (1. measurement), 46.1% in “in vitro” (2. measurement) and 45.1% in “in vitro” (3. measurement). Besides, the viability at 30 µM in the data set “in vitro” (1. measurement) was determined as 34.3%; in the data set “in vitro” (2. measurement) it was 36.5%; in “in vitro” (3. measurement), 34.5%. The figures for the viability at 40 µM in “in vitro” (1. measurement), in “in vitro” (2. measurement) and in the data set “in vitro” (3. measurement) were 24.6%, 16.2% and 14.8%, respectively. The viability at 50 µM amounted to 10.5% in “in vitro” (1. measurement), 2.08% in the data set “in vitro” (2. measurement) and 2.75% in the data set “in vitro” (3. measurement).

As for `COc1ccc2cc3[n+](cc2c1OCc1ccc(Br)cc1)CCc1cc2c(cc1-3)OCO2` [16g, 9-O-(4-brombenzyl)berberine chloride], the “SI (selectivity index)” value in the data set with HepG2 cells [8] was found to be 2.89. Also, the MIC in [1] (setting [10]) is 3.91 µg/mL; in data set [1] (setting [11]), 7.42 µM; in [3] it was 1.98 µg/mL; in data set [5] it was 3.91 µg/mL; in data set [6], 0.98 µg/mL; in [7], 0.98 µg/mL. The viability at 1 µM turned out to be 101% in the data set “in vitro” (1. measurement), 96.5% in the data set “in vitro” (2. measurement) and 85% in the data set “in vitro” (3. measurement). The viability at 5 µM was 70.1% in “in vitro” (1. measurement), 76.3% in the data set “in vitro” (2. measurement) and 72.1% in the data set “in vitro” (3. measurement). The viability at 10 µM in “in vitro” (1. measurement) is 53.9%; in “in vitro” (2. measurement), 59.4%; in “in vitro” (3. measurement), 56.6%. Besides, the viability at 25 µM in “in vitro” (1. measurement) amounted to 46.7%; in “in vitro” (2. measurement), 44.7%; in the data set “in vitro” (3. measurement), 45.8%. The viability at 50 µM in the data set “in vitro” (1. measurement) was 42.5%; in “in vitro” (2. measurement) it was 47.8%; in “in vitro” (3. measurement), 45.5%. Also, the viability at 75 µM in the data set “in vitro” (1. measurement) was found to be 25.8%; in the data set “in vitro” (2. measurement), 40.7%; in the data set “in vitro” (3. measurement), 26%. The viability at 100 µM is 17.9% in the data set “in vitro” (1. measurement), 23.9% in “in vitro” (2. measurement) and 14% in “in vitro” (3. measurement). Moreover, the IC50 in the data set on HepG2 cells [9] (setting [12]) was 19.2 µM; in the data set with HepG2 cells [9] (setting [13]), 26.9 µM; with HepG2 cells [9] (setting [14]), 18.2 µM; with HepG2 cells [9] (setting [15]), 21.4 ± 4.8 µM.
